# Source: patent publication US8008292B2, “Condensed benzamide compounds and inhibitors of vanilloid receptor subtype 1 (VR1) activity” (Japan Tobacco Inc., priority 2004, dated 2011)
# Biological target: T1, human VR1 (Homo sapiens, UniProt Q8NER1)
# T1 construct: expressed in transfected cells
# Experiment: Inhibition of Ca2+ entry in cells caused by proton, in rat glioma (C6BU1) cells stably expressing human VR1 (Fura 2 fluorescence)
# Type: cell-based
# Settings: inhibition of proton-induced Ca2+ entry
# Protocol: The assay for evaluation of VR1 inhibition by the inventive compounds will be described below. The assay was intended to evaluate in vitro inhibition of Ca^2+ entry in cells caused by proton, one of the VR1 agonists.
# Rat glioma (C6BU1) cells stably expressing human VR1 were suspended in 20 mM MES buffer (at pH 6.8, contg. 20 mM 2-morpholinoethanesulfonate (referred to as MES hereinafter), 115 mM NaCl, 5 mM KCl, 1 mM MgCl2 and 14 mM D-glucose) to make a cell density of 1×10^6 cells/mL. A fluorescent dye, Fura 2-AMsolution (DojindoCorporate, Cat. No. 343-05401) was added to the suspension to make a 5 μM concentration thereof. Further, Pluronic F-127 (Wako Pure Chemical Industries, Ltd., Cat. No. P6866) was added to make a 0.1% content thereof. Then, the suspension was incubated at 37° C. for 30 min. The cells were harvested and washed three times with 20 mM MES buffer. The cells were suspended again to make a cell density of 5×10^5 cells/mL. A 500-μL portion of the suspension was taken with a cuvette (MC MEDICAL, INC., Cat. No. SSR3121), to which 10 μL of 20 mM MES buffer containing 250 mM CaCl2 was added to incorporate Ca^2+ into the cells. At the same time, 5 μL of a test compound solution (in a range of 100 μM to 10 nM in DMSO) was also added to provide a final concentration thereof in a range of 1 μM to 0.1 nM. Alternatively, 5 μL of DMSO was added as control to provide a final concentration of 1% DMSO. The suspension was set in an intracellular ionometer (CAF-110; JASCO) 10 min after those additions. The cells were stimulated with protons by addition of 60 μL of 20 mM MES buffer at pH 1.1 to the suspension to set its pH at 5.5. The activity of the test compound was determined as a difference between the minimum of fluorescence intensity before agonist stimulation and its maximum after the stimulation. The value of IC50 was derived from percentage of inhibition by the test compound compared with the control.
# In the tables, the symbol “++” indicates an IC50 value less than 100 nM and the symbol “+” indicates an IC50 value of 100 nM to 1,000 nM inclusive.
# T1 sequence (Q8NER1 whole entry): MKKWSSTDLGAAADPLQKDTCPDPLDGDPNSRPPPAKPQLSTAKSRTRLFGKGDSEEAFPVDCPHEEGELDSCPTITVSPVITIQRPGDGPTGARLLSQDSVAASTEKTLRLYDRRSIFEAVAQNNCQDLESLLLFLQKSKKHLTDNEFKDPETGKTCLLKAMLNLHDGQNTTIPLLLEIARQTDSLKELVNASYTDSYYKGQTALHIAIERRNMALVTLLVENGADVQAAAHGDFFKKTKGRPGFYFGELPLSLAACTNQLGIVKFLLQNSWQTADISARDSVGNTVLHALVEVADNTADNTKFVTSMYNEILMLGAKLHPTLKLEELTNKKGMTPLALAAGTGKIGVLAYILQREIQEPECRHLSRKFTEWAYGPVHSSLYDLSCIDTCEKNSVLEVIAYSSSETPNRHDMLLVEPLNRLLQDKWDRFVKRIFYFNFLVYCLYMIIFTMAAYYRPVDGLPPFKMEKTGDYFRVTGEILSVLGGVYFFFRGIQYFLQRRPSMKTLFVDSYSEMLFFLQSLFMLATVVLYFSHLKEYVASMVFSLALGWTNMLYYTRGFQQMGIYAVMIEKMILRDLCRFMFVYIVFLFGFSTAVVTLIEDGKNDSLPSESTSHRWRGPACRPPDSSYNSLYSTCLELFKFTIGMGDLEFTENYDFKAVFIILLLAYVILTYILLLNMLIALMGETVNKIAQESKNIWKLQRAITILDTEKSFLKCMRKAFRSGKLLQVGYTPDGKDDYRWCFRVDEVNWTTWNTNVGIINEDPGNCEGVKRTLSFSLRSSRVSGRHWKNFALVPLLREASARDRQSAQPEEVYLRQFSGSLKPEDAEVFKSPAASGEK
row,SMILES,IC50 [nM]
1,CC(=O)NC[C@H]1COc2c(C(=O)Nc3ccc(C(F)(F)F)cc3)cccc2N1c1ncccc1Cl [Example 1-228],< 100
2,O=C(Nc1ccc(OC(F)(F)F)cc1)c1cccc2c1OCCN2c1ccc(O)cn1 [Example 1-201],100 to 1000
3,Cc1ccc(N2CCOc3c(C(=O)NCCc4ccccc4Cl)cccc32)nc1 [Example 1-127],< 100
4,Cc1ccc(N2CCOc3c(C(=O)Nc4ccc(C#N)cc4)cccc32)nc1 [Example 1-062],< 100
5,COCCN(c1ccc(NC(=O)c2cccc3c2OCCN3c2ccc(C)cn2)cc1F)C(C)C [Example 1-164],< 100
6,CC(=O)c1cc(NC(=O)c2cccc3c2OCCN3c2ccc(C)cn2)ccc1Cl [Example 1-080],< 100
7,O=C(Nc1cc(Cl)cc(Cl)c1)c1cccc2c1OCCN2c1ncc(CO)cc1Cl [Example 2-43],< 100
8,Cc1cnc(N2c3cccc(C(=O)Nc4ccc(Br)c(F)c4)c3OC[C@@H]2CO)s1 [Example 6-7],< 100
9,O=C(N[C@H]1CC[C@H](OC2CCCCC2)CC1)c1cccc2c1OCCN2c1ncccc1Cl [Example 1-099],100 to 1000
10,CCOc1ccc(NC(=O)c2cccc3c2OCCN3c2ccc(C)cn2)cc1F [Example 1-086],< 100
11,CC1(C)CN(c2ncccc2Cl)c2cccc(C(=O)Nc3ccc(C(C)(C)C)cc3)c2O1 [Example 1-018],100 to 1000
12,COC(=O)c1cc(NC(=O)c2cccc3c2OCCN3c2ccc(C)cn2)ccc1OCC(C)C [Example 1-073],< 100
13,COc1cccnc1N1CCOc2c(C(=O)Nc3ccc(C(C)(C)C)cc3)cccc21 [Example 1-151],< 100
14,O=C(Nc1ccc(C(F)(F)F)nc1)c1cccc2c1OCCN2c1ncccc1Cl [Example 1-030],< 100
15,Cc1ccc(N2c3cccc(C(=O)Nc4ccc(OC(F)(F)F)c(Cl)c4)c3OC[C@@H]2CO)nc1 [Example 4-31],< 100
16,"O=C(Nc1ccc2c(c1)OCO2)c1cccc2c1OCCN2c1ncc(CO)cc1Cl [Example 2-01, N-(benzo[1,3]dioxol-5-yl)-4-(3-chloro-5-hydroxymethylpyridin-2-yl)-3,4-dihydro-2H-benzo[1,4]oxazine-8-carboxamide]",100 to 1000
17,O=C(Nc1ccc(Br)c(Cl)c1)c1cccc2c1OCCN2c1ncc(CO)cc1Cl [Example 2-17],< 100
18,O=C(Nc1ccc(Cl)cc1)c1cccc2c1OCCN2c1ncc(CO)cc1Cl [Example 2-45],< 100
19,O=C(Nc1cccc(C(F)(F)F)c1)c1cccc2c1OCCN2c1ncccc1Cl [Example 1-027],< 100

row,SMILES,IC50 [nM]
1,"Cc1nc(N2c3cccc(C(=O)Nc4ccc(OC(F)(F)F)cc4)c3OC[C@@H]2CO)sc1C [Example 6-13, (S)-4-(4,5-dimethylthiazol-2-yl)-3-hydroxymethyl-N-(4-trifluoromethoxyphenyl)-3,4-dihydro-2H-benzo[1,4]oxazine-8-carboxamide]",< 100
2,COCc1cnc(N2CCOc3c(C(=O)Nc4ccc(OC(F)(F)F)cc4)cccc32)c(Cl)c1 [Example 1-220],< 100
3,CC(C)(C)c1ccc(NC(=O)c2cccc3c2OCCN3c2ccc(N)cn2)cc1 [Example 1-141],< 100
4,Cc1ccc(N2CCOc3c(C(=O)Nc4ccc(Cl)c(N)c4)cccc32)nc1 [Example 1-063],< 100
5,"O=C(Nc1ccc(OC(F)(F)F)c(Cl)c1)c1cccc2c1OCCN2c1ncc(CO)cc1Cl [Example 2-04, N-(3-chloro-4-trifluoromethoxypheny)-4-(3-chloro-5-hydroxymethylpyridin-2-yl)-3,4-dihydro-2H-benzo[1,4]oxazine-8-carboxamide]",< 100
6,CCOc1ccc(NC(=O)c2cccc3c2OC[C@H](CO)N3c2ncccc2Cl)cc1F [Example 4-23],< 100
7,CC(C)(O)c1cnc(N2CCOc3c(C(=O)Nc4ccc(C(F)(F)F)cc4)cccc32)c(Cl)c1 [Example 1-129],< 100
8,Cc1ccc(N2c3cccc(C(=O)Nc4ccc(OCC(C)C)c(C(F)(F)F)c4)c3OC[C@@H]2CO)nc1 [Example 4-45],< 100
9,Cc1ccc(N2CCOc3c(C(=O)Nc4ccc(F)c(F)c4)cccc32)nc1 [Example 1-158],< 100
10,Cc1ccc(N2CCOc3c(C(=O)NCCc4ccc(Cl)cc4)cccc32)nc1 [Example 1-125],< 100
11,"O=C(Nc1ccc(OC(F)(F)F)cc1)c1cccc2c1OCCN2c1ncccc1CO [Example 2-11, N-(4-trifluoromethoxyphenyl)-4-(3-hydroxymethylpyridin-2-yl)-3,4-dihydro-2H-benzo[1,4]oxazine-8-carboxamide]",100 to 1000
12,O=C(Nc1ccc(N2CCCCC2)c(F)c1)c1cccc2c1OC[C@H](CO)N2c1ncccc1Cl [Example 4-10],< 100
13,Cc1ccc(N2c3cccc(C(=O)Nc4ccc(OCC(C)C)c(F)c4)c3OC[C@@H]2CO)nc1 [Example 4-54],< 100
14,Cc1ccc(N2c3cccc(C(=O)Nc4ccc(F)c(C(F)(F)F)c4)c3OC[C@@H]2CO)nc1 [Example 4-55],< 100
15,"CN1CCN(c2ncccc2Cl)c2cccc(C(=O)Nc3ccc(C(C)(C)C)cc3)c21 [Example 1-004, N-(4-tert-butylphenyl)-1-(3-chloropyridin-2-yl)-4-methyl-1,2,3,4-tetrahydroquinoxaline-5-carboxamide]",< 100
16,"O=C(Nc1ccc(C(F)(F)F)c(F)c1)c1cccc2c1OCCN2c1ncc(CO)cc1Cl [Example 2-06, N-(3-fluoro-4-trifluoromethylphenyl)-4-(3-chloro-5-hydroxymethylpyridin-2-yl)-3,4-dihydro-2H-benzo[1,4]oxazine-8-carboxamide]",< 100
17,O=C(Nc1ccc2c(c1)OC(F)(F)C(F)(F)O2)c1cccc2c1OCCN2c1ncc(CO)cc1Cl [Example 2-38],< 100
18,COCCOc1cc(NC(=O)c2cccc3c2OCCN3c2ccc(C)cn2)ccc1C [Example 1-089],< 100
19,"CC(=O)c1ccc(NC(=O)c2cccc3c2OCCN3c2ncccc2Cl)cc1 [Example 1-039, N-(4-acetylphenyl)-4-(3-chloropyridin-2-yl)-3,4-dihydro-2H-benzo[1,4]oxazine-8-carboxamide]",100 to 1000

row,SMILES,IC50 [nM]
1,O=C(Nc1ccc(Cl)c(Cl)c1)c1cccc2c1OCCN2c1ncc(CO)cc1Cl [Example 2-40],< 100
2,O=C(Nc1cc(F)c(F)c(F)c1)c1cccc2c1OCCN2c1ncc(CO)cc1Cl [Example 2-25],< 100
3,CC(O)c1cnc(N2CCOc3c(C(=O)Nc4ccc(C(F)(F)F)cc4)cccc32)c(Cl)c1 (stereo not drawn) [Example 1-130],< 100
4,O=C(Nc1ccc(Br)cc1)c1cccc2c1OCCN2c1ncc(CO)cc1Cl [Example 2-42],< 100
5,"O=C(Nc1ccc(OC(F)(F)F)cc1)c1cccc2c1OC[C@H](CO)N2c1ccc(Cl)cn1 [Example 4-05, (S)-4-(5-chloropyridin-2-yl)-3-hydroxylmethyl-N-(4-trifluoromethoxyphenyl)-3,4-dihydro-2H-benzo[1,4]oxazine-8-carboxamide]",< 100
6,CCC[C@H]1CC[C@H](NC(=O)c2cccc3c2OCCN3c2ccc(C)cn2)CC1 [Example 1-192],< 100
7,Cc1ccc(N2c3cccc(C(=O)Nc4ccc(Cl)cc4)c3OC[C@@H]2CO)nc1 [Example 4-48],< 100
8,CN(C)c1ccc(NC(=O)c2cccc3c2OCCN3c2ncccc2Cl)cc1 [Example 1-049],100 to 1000
9,NC(=O)c1cnc(N2CCOc3c(C(=O)Nc4ccc(OC(F)(F)F)cc4)cccc32)c(Cl)c1 [Example 1-227],< 100
10,O=C(Nc1ccc(C(F)(F)F)c(F)c1)c1cccc2c1OC[C@H](CO)N2c1ncccc1Cl [Example 4-53],< 100
11,CC(C)(C)c1ccc(NC(=O)c2cccc3c2OCCN3c2ccc(C(=O)O)cn2)cc1 [Example 1-133],100 to 1000
12,CNc1ccc(N2CCOc3c(C(=O)Nc4ccc(OC(F)(F)F)cc4)cccc32)nc1 [Example 1-197],< 100
13,O=C(Nc1ccc(C(F)(F)F)cc1)c1cccc2c1OCCN2c1ncc(CCO)cc1Cl [Example 1-154],< 100
14,N#Cc1cccnc1N1CCOc2c(C(=O)Nc3ccc(OC(F)(F)F)cc3)cccc21 [Example 1-203],< 100
15,Cc1cccnc1N1c2cccc(C(=O)Nc3ccc(C(F)(F)F)cc3)c2OC[C@@H]1CO [Example 4-42],< 100
16,CCOC(=O)C1CCN(c2ccc(NC(=O)c3cccc4c3OCCN4c3ccc(C)cn3)cc2F)CC1 [Example 1-167],< 100
17,O=C(Nc1ccc(Cl)cc1)c1cccc2c1OC[C@H](CO)N2c1ncccc1Cl [Example 4-16],< 100
18,Cc1cccnc1N1c2cccc(C(=O)Nc3ccc(OC(F)(F)F)cc3)c2OC[C@@H]1CO [Example 4-41],< 100
19,CC1CN(c2ncccc2Cl)c2cccc(C(=O)Nc3ccc(C(C)(C)C)cc3)c2O1 (stereo not drawn) [Example 1-019],100 to 1000
